The values that follow come from patent publication US20250136997A1, “COMPOSITIONS FOR SEQUESTERING ISOAMYL AMINE AND METHODS OF USE THEREFOR” (University of Louisville Research Foundation, Inc., priority 2023, published 2025).

Experiment [1] can be described thus: Electroencephalography (EEG) recording in mice. It is filed as in vivo, mouse. As for the experimental part:
Electroencephalography (EEG) recording in mice. Groups of mice were anesthetized by peritoneal administration of ketamine (90 mg/kg) and xylazine (10 mg/kg) mixture. Mice that were not responsive to nociceptive stimuli were consider anesthetized and were administered the analgesic buprenorphine (0.1 mg/kg). The fur of the skull area was removed, placed on surgical bench and skin area were cleaned with betadine and 70% ethyl alcohol. The midline scalp skin was lifted using forceps and an incision made from the frontal cranial bone to the back of the parietal cranial bones. The skin was push aside and cleaned with betadine using cotton swabs. The skull was cleaned and marked for placement of electrodes. Two craniotomies 0.25-0.5 mm in diameter on the side of each hemisphere were established a 3 mm distance from the midline vertical fissure in the frontal and occipital regions; a hand-held drill (Kopf) with matching drill bits (0.5 mm) was used for the craniotomies. Four electrodes were placed in appropriate skull holes over the frontal cortex (FC) and occipital cortex (OC). A ground/reference electrode was also implanted in the most anterior region of cerebellum. Thus, two independent EEG channels were created for FC and OC on each side of the hemisphere. […]

Experiment [2] in a line: Histological analysis (H&E) of brain. It is filed as in vivo, mouse. The following applies: IAA to young mice, phage to aged mice; especially cerebrum and cerebellum. As for the experimental part:
Histological analysis. For hematoxylin and eosin (H&E) staining, tissues were fixed with buffered 10% formalin solution (SF93-20; Fisher Scientific, Fair Lawn, NJ) overnight at 4° C. Dehydration was achieved by immersion in a graded ethanol series of 70%, 80%, 95%, and 100% ethanol for 40 minutes each. Tissues were embedded in paraffin and subsequently cut into ultra-thin slices (5 μm) using a microtome. Tissues were deparaffinized by xylene (Fisher) and rehydrated by decreasing concentrations of ethanol and PBS. Tissue sections were stained with H&E and slides were scanned with an Aperio ScanScope. For frozen sections, tissues were fixed with periodate-lysine-paraformaldehyde (PLP) and dehydrated with 30% sucrose in PBS at 4° C. overnight. The sections were incubated overnight at 4° C. with anti-Iba1 (FujiFilm, #019-19741) and anti-CD-11b (Biolegend, #101204) diluted 1:100. The signal was visualized with the secondary antibodies conjugated to Fluors Alex-488 or Alex-594 (Invitrogen) and nuclei were stained with 4′,6-Diamidino-2-phenylindole dihydrochloride (DAPI). The slides were scanned using an Aperio ScanScope or visualized using confocal laser scanning microscopy (Nikon, Melville, NY).

The next experiment concerns microglial cells. Briefly: Western blot of cleaved caspase-3 and cleaved PARP in ex vivo cultured microglial cells. It is filed as cell-based, mouse. Here is the method:
Isolation of microglia, neuron, astrocytes, and oligodendrocytes from the brain. Mice were anaesthetized with a mixture of ketamine (16%) and xylazine (3%) by intraperitoneal injection and then sacrificed under basal conditions by transcardial perfusion with perfusion buffer (Ca^2+/Mg^2+ free HBSS containing 0.5 mM EGTA, 10 mM HEPES and 4.2 mM NaHCO3; pH 7.2). The perfused brain was removed and gently mechanically disaggregated with tweezers in dissociation buffer (HBSS containing 10 mM HEPES and 4.2 mM NaHCO3 supplemented with Type I collagenase (0.05%), Dispase II (25 mg/ml), DNase I (2.5 mg/ml), trypsin inhibitor ([…]); pH 7.5) followed by incubation at 37° C. for 1 hour. The tissue homogenate was centrifuged at 1,350×g for 5 minutes at 4° C. For the isolation of microglia, the digestion enzymes in the tissue homogenate were inactivated by addition of PBS/EDTA containing 5% fetal bovine serum (FBS) and the digested brain bits were triturated gently, passed over a 100 µm filter (Fisher Scientific) and centrifuged. […] The pellet of cells was rinsed in PBS. Any contaminating red blood cells (RBC) were lysed using RBC lysis buffer (Sigma) according to the manufacturer's instructions, rinsed twice with PBS and passed through a 40 µm filter (Fisher Scientific). Cells were then stained for CD11b and CD45 for flow cytometry analysis. The astrocytes were isolated from mouse cortices (n=10). The tissue homogenate was centrifuged at 800×g for 10 minutes at 4° C. following digestion with type II collagenase (1 mg/ml) and type I DNase (10 U/ml) in DMEM for 10 minutes. The cells pelleted by centrifugation were plated in a 100 mm culture dish coated with poly-L-ornithine (Sigma). For the isolation of oligodendrocytes, the glial cells above were cultured in specific media containing T3 and T4 (0.5 mM) as well as platelet-derived growth factor (PDGF, 10 ng/ml) to promote the growth of the different cell types. Isolated glial cells were labelled with the following antibodies against surface markers: CD11b (Biolegend, Cat #101206), CD45 (Biolegend, Cat #147710), GFAP (Biolegend, Cat #837508) and MOG (Biorbyt, Cat #orb412341-FITC). Cells positive for CD11b and CD45Med were identified as microglia. Cells positive for GFAP and negative for CD45 and CD11b were identified as astrocytes. Cells sorted with MOG+CD11b− were identified as oligodendrocytes. Neurons were isolated from mouse brain using the Pierce Primary Neuron Isolation Kit (Thermo Scientific, Cat #88280). Briefly, the tissue homogenate from freshly dissected cortexes was suspended in an equal volume of ice cold HBSS (Sigma) and replaced with Neuronal Isolation Enzyme (with papain) in a 37° C. incubator for 30 minutes. After washing with HBSS, the tissue was cultured in a poly-D-lysine coated plate with Neuronal Culture Medium.
Western blotting. Cells were treated as indicated in individual Figure legends and whole cell extracts (WCE) were prepared in the radioimmunoprecipitation assay (RIPA) buffer (Sigma) with addition of protease and phosphatase inhibitors (Roche). Proteins were separated by 10% SDS-PAGE and transferred to polyvinylidene difluoride (PVDF) membranes (Bio-Rad Laboratories, Inc., Hercules, CA). Dual color precision protein MW markers (BioRad) were separated in parallel. Antibodies were purchased as follows: cleaved-caspase-3 (ab214430), cleaved PARP (ab203467) and GAPDH (ab9657, Abcam) from Abcam; S100A8 (47310) and S100a9 (72590) from Cell Signaling; and Ltf (GTX81085) from GeneTex. The secondary antibodies conjugated to Fluors Alex-488 (A32723) or Alex-594 (A11012) were purchased from Invitrogen (Eugene, OR). The bands were visualized on the Odyssey Imager (LiCor Inc, Lincoln, NE).
A general note: A western blot detects proteins with antibodies after separation by electrophoresis.

Setting [3] is: added to ex vivo cultured microglial cells from young mice.

With `CC(C)CCN` [IAA, isoamylamine], the EEG rhythms coherence entry in experiment [1] (IAA mice vs control, phage to aged mice) is given as “incoherence”. Further, the “distributions of DSA (bilateral symmetry)” value in experiment [1] (IAA-treated young mice, phage-treated aged mice) is recorded as “asymmetric bilaterally”. Also, in experiment [2], the “neuronal loss and dying neurons in the brain (histology)” value was “significantly promoted”. The “effect on the microglia (cleaved caspase-3)” value in the experiment with microglial cells (S100A8 deficient microglia cells) is on record as “abolished”. Further, in the experiment on microglial cells (setting [3]), the “cleaved caspase-3” value was “increasing” and the “cleaved poly(-ADP-ribose) polymerase (PARP)” value is reported as “increasing”.
